Laboratory results reported in ChEMBL document CHEMBL1201862, “PubChem BioAssay data set” (2004).
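96-well plates; 48 h exposure; 5 concentrations. Endpoints by linear interpolation between flanking doses. Not reached: highest tested concentration assigned. Abbreviation: GI50, concentration required for 50% inhibition of growth.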 The source made the active and inactive calls. Rule as the data show it: active = GI50 up to about 1.1 µM and inactive = higher.

Assays:
Assay in all cases: inhibition of tumour cell growth, NCI panel, 48 h
SK-OV-3 = test system: SK-OV-3
786-0 = test system: 786-0
NCI-H460 = test system: NCI-H460
A498 = test system: A498
NCI-H23 = test system: NCI-H23
MDA-MB-231 = test system: MDA-MB-231
IGROV-1 = test system: IGROV-1
Hs-578T = test system: Hs-578T
CCRF-CEM = test system: CCRF-CEM
U-251 = test system: U-251
SR = test system: SR
EKVX = test system: EKVX
OVCAR-8 = test system: OVCAR-8
SK-MEL-2 = test system: SK-MEL-2
SN12C = test system: SN12C
HCC 2998 = test system: HCC 2998
M14 = test system: M14
ACHN = test system: ACHN
MDA-MB-435 = test system: MDA-MB-435
SNB-19 = test system: SNB-19
HOP-92 = test system: HOP-92
SNB-75 = test system: SNB-75
SK-MEL-28 = test system: SK-MEL-28
NCI-H522 = test system: NCI-H522
NCI/ADR-RES = test system: NCI/ADR-RES
HT-29 = test system: HT-29
NCI-H226 = test system: NCI-H226
UO-31 = test system: UO-31
DU-145 = test system: DU-145
CAKI-1 = test system: CAKI-1
MOLT-4 = test system: MOLT-4
A549 = test system: A549
SF-539 = test system: SF-539
UACC-62 = test system: UACC-62
BT-549 = test system: BT-549
SF-268 = test system: SF-268
HCT-15 = test system: HCT-15
HOP-62 = test system: HOP-62
OVCAR-4 = test system: OVCAR-4
T47D = test system: T47D
Malme-3M = test system: Malme-3M
K562 = test system: K562
TK-10 = test system: TK-10
RXF 393 = test system: RXF 393
KM12 = test system: KM12
HCT-116 = test system: HCT-116
OVCAR-3 = test system: OVCAR-3
SW-620 = test system: SW-620
RPMI-8226 = test system: RPMI-8226
UACC-257 = test system: UACC-257
LOX IMVI = test system: LOX IMVI
PC-3 = test system: PC-3
MDA-N = test system: MDA-N
OVCAR-5 = test system: OVCAR-5
MCF7 = test system: MCF7
COLO 205 = test system: COLO 205
SK-MEL-5 = test system: SK-MEL-5
SF-295 = test system: SF-295
HL-60 = test system: HL-60

With CN(C)c1c(C2OC(CO)C(O)C2O)c(=O)c1=O (centres undefined) the GI50 (SK-OV-3) was > 100 µM (inactive), the GI50 (786-0) was > 100 µM (inactive) and the GI50 (NCI-H460) was > 100 µM (inactive). The GI50 (A498) was > 100 µM (inactive), the GI50 (NCI-H23) was > 100 µM (inactive) and the GI50 (MDA-MB-231) was > 100 µM (inactive). For the same molecule, the GI50 (IGROV-1) was > 100 µM (inactive), the GI50 (Hs-578T) was > 100 µM (inactive) and the GI50 (CCRF-CEM) was 82.2 µM (inactive). The GI50 (U-251) was > 100 µM (inactive), the GI50 (SR) was > 100 µM (inactive) and the GI50 (EKVX) was > 100 µM (inactive). The GI50 (OVCAR-8) was > 100 µM (inactive), the GI50 (SK-MEL-2) was > 100 µM (inactive) and the GI50 (SN12C) was > 100 µM (inactive). For the same molecule, the GI50 (HCC 2998) was > 100 µM (inactive), the GI50 (M14) was > 100 µM (inactive) and the GI50 (ACHN) was > 100 µM (inactive). For the same molecule, the GI50 (MDA-MB-435) was > 100 µM (inactive), the GI50 (SNB-19) was > 100 µM (inactive) and the GI50 (HOP-92) was > 100 µM (inactive). The GI50 (SNB-75) was > 100 µM (inactive), the GI50 (SK-MEL-28) was > 100 µM (inactive) and the GI50 (NCI-H522) was > 100 µM (inactive). For the same molecule, the GI50 (NCI/ADR-RES) was > 100 µM (inactive), the GI50 (HT-29) was > 100 µM (inactive) and the GI50 (NCI-H226) was > 100 µM (inactive). The GI50 (UO-31) was > 100 µM (inactive), the GI50 (DU-145) was > 100 µM (inactive) and the GI50 (CAKI-1) was > 100 µM (inactive). The GI50 (MOLT-4) was > 100 µM (inactive), the GI50 (A549) was > 100 µM (inactive) and the GI50 (SF-539) was < 0.01 µM (active). For the same molecule, the GI50 (UACC-62) was > 100 µM (inactive), the GI50 (BT-549) was > 100 µM (inactive) and the GI50 (SF-268) was > 100 µM (inactive). The GI50 (HCT-15) was greater than 100 µM, the GI50 (HOP-62) was > 100 µM (inactive) and the GI50 (OVCAR-4) was > 100 µM (inactive). The GI50 (T47D) was > 100 µM (inactive), the GI50 (Malme-3M) was > 100 µM (inactive) and the GI50 (K562) was > 100 µM (inactive). The GI50 (TK-10) was > 100 µM (inactive), the GI50 (RXF 393) was > 100 µM (inactive) and the GI50 (KM12) was > 100 µM (inactive). The GI50 (HCT-116) was > 100 µM (inactive), the GI50 (OVCAR-3) was > 100 µM (inactive) and the GI50 (SW-620) was > 100 µM (inactive). For the same molecule, the GI50 (RPMI-8226) was > 100 µM (inactive), the GI50 (UACC-257) was > 100 µM (inactive) and the GI50 (LOX IMVI) was > 100 µM (inactive). The GI50 (PC-3) was > 100 µM (inactive), the GI50 (MDA-N) was > 100 µM (inactive) and the GI50 (OVCAR-5) was > 100 µM (inactive).

In the case of C=C1C(=O)[C@@]23CC1C(O)[C@@H](OC(C)=O)[C@@H]2C1(C)C(OC(C)=O)C[C@@H](OC(C)=O)C(C)(C)[C@@H]1C[C@H]3OC(C)=O (some centres undefined), the GI50 (786-0) is reported as 5.52 µM (inactive), the GI50 (A498) is reported as > 10 µM (inactive) and the GI50 (Hs-578T) is reported as 2.9 µM (inactive). The GI50 (SN12C) was 3.77 µM (inactive), the GI50 (HCC 2998) was > 10 µM (inactive) and the GI50 (ACHN) was > 10 µM (inactive). The GI50 (NCI/ADR-RES) was > 10 µM (inactive), the GI50 (NCI-H226) was > 10 µM (inactive) and the GI50 (DU-145) was > 10 µM (inactive). For the same molecule, the GI50 (CAKI-1) was 6.27 µM (inactive), the GI50 (BT-549) was 1.47 µM (inactive) and the GI50 (HCT-15) was 2.6 µM. For the same molecule, the GI50 (HOP-62) was > 10 µM (inactive), the GI50 (MCF7) was 2.58 µM (inactive) and the GI50 (T47D) was 2.12 µM (inactive). The GI50 (LOX IMVI) was 6.35 µM (inactive), the GI50 (PC-3) was > 10 µM (inactive) and the GI50 (MDA-N) was 3.85 µM (inactive).

O=C(O)c1cc(-c2ccc(-c3ccccc3)cc2)nc2cc3ccccc3cc12 was tested, and the GI50 (SK-OV-3) was > 100 µM (inactive), the GI50 (786-0) was 25.9 µM (inactive) and the GI50 (NCI-H460) was 6.35 µM (inactive). The GI50 (A498) was > 100 µM (inactive), the GI50 (NCI-H23) was 36.8 µM (inactive) and the GI50 (MDA-MB-231) was 21.2 µM (inactive). The GI50 (IGROV-1) was 26.4 µM (inactive), the GI50 (Hs-578T) was 32.3 µM (inactive) and the GI50 (CCRF-CEM) was 5.21 µM (inactive). For the same molecule, the GI50 (U-251) was 20.7 µM (inactive), the GI50 (SR) was 5.43 µM (inactive) and the GI50 (EKVX) was 57.1 µM (inactive). For the same molecule, the GI50 (OVCAR-8) was 57.1 µM (inactive), the GI50 (SK-MEL-2) was 82 µM (inactive) and the GI50 (SN12C) was 61.9 µM (inactive). The GI50 (M14) was > 100 µM (inactive), the GI50 (ACHN) was 46.6 µM (inactive) and the GI50 (MDA-MB-435) was 72.9 µM (inactive). The GI50 (SNB-19) was 35.6 µM (inactive), the GI50 (COLO 205) was 54.7 µM (inactive) and the GI50 (HOP-92) was 28.2 µM (inactive). The GI50 (SK-MEL-5) was 26.4 µM (inactive), the GI50 (SNB-75) was 29.2 µM (inactive) and the GI50 (SK-MEL-28) was 87.5 µM (inactive). The GI50 (NCI-H522) was 27.7 µM (inactive), the GI50 (NCI/ADR-RES) was 75.7 µM (inactive) and the GI50 (HT-29) was 38 µM (inactive). For the same molecule, the GI50 (NCI-H226) was 35.7 µM (inactive), the GI50 (UO-31) was 61.9 µM (inactive) and the GI50 (DU-145) was 66.8 µM (inactive). The GI50 (CAKI-1) was 42 µM (inactive), the GI50 (MOLT-4) was 11.6 µM (inactive) and the GI50 (SF-295) was 34.8 µM (inactive). The GI50 (A549) was 19.8 µM (inactive), the GI50 (SF-539) was 31.2 µM (inactive) and the GI50 (UACC-62) was 25.5 µM (inactive). For the same molecule, the GI50 (BT-549) was 35.9 µM (inactive), the GI50 (SF-268) was 35.2 µM (inactive) and the GI50 (HCT-15) was 8.15 µM. For the same molecule, the GI50 (HOP-62) was 30.3 µM (inactive), the GI50 (MCF7) was > 100 µM (inactive) and the GI50 (OVCAR-4) was 29.4 µM (inactive). For the same molecule, the GI50 (T47D) was 49.5 µM (inactive), the GI50 (Malme-3M) was 84.5 µM (inactive) and the GI50 (K562) was 14.2 µM (inactive). For the same molecule, the GI50 (TK-10) was 58.2 µM (inactive), the GI50 (RXF 393) was 27.7 µM (inactive) and the GI50 (KM12) was 34.3 µM (inactive). For the same molecule, the GI50 (HCT-116) was 31.3 µM (inactive), the GI50 (OVCAR-3) was 47.9 µM (inactive) and the GI50 (SW-620) was 40.4 µM (inactive). For the same molecule, the GI50 (RPMI-8226) was 29.6 µM (inactive), the GI50 (UACC-257) was > 100 µM (inactive) and the GI50 (HL-60) was 19.1 µM (inactive). The GI50 (LOX IMVI) was 66.7 µM (inactive), the GI50 (PC-3) was 17.5 µM (inactive) and the GI50 (OVCAR-5) was > 100 µM (inactive).
